Source: ChEMBL document CHEMBL5634089, “Design, synthesis and evaluation of 2-pyrimidinylindole derivatives as anti-obesity agents by regulating lipid metabolism” (Eur J Med Chem, 2023)
Active and inactive are the calls of the source. No cut-off for these calls is given here.

Key:
[1] = tested on: Mus musculus; assay: Anti-obesity activity in high-fat and high-cholesterol diet induced C57BL/6J mouse assessed as reduction in liver damage by measuring reduction in aspartate aminotransferase level in serum at 20 mg/kg, ip administered every day for 6 weeks; type: functional, organism-based
[2] = AUC (0 to t) in Sprague-Dawley rat at 2 mg/kg, iv administered for 24 hrs by LC-MS/MS analysis; type: ADME, organism-based; settings: in vivo
[3] = tested on: 3T3-L1; assay: Anti-adipogenic activity against mouse 3T3-L1 cells assessed as change in phosphorylated AMPK alpha level; type: functional, cell-based
[4] = Apparent volume of distribution during terminal phase in Sprague-Dawley rat at 20 mg/kg, po administered for 24 hrs by LC-MS/MS analysis; type: ADME, organism-based; settings: in vivo, read-out: Vz/F
[5] = Cytotoxicity against mouse 3T3-L1 cells assessed as reduction in cell viability incubated for 24 hrs by Sulforhodamine B assay; type: toxicity, cell-based
[6] = tested on: 3T3-L1; assay: Anti-adipogenic activity against mouse 3T3-L1 cells assessed as decrease in ATP citrate lyase mRNA expression at 0.2 to 0.8 uM incubated for 3 days by RT-PCR analysis; type: functional, cell-based; settings: dose 0.2-0.8 µM, time 3.0 day
[7] = MRT (0 to t) in Sprague-Dawley rat at 2 mg/kg, iv administered for 24 hrs by LC-MS/MS analysis; type: ADME, organism-based; settings: in vivo
[8] = tested on: 3T3-L1; assay: Anti-adipogenic activity against mouse 3T3-L1 cells assessed as increase in Acsl1 mRNA expression at 0.2 to 0.8 uM incubated for 3 days by RT-PCR analysis; type: functional, cell-based; settings: dose 0.2-0.8 µM, time 3.0 day
[9] = tested on: Mus musculus; assay: Anti-obesity activity in high-fat and high-cholesterol diet induced C57BL/6J mouse assessed as reduction in liver damage by measuring reduction in alkaline phosphatase level in serum at 20 mg/kg, ip administered every day for 6 weeks; type: functional, organism-based
[10] = Apparent volume of distribution during terminal phase in Sprague-Dawley rat at 2 mg/kg, iv administered for 24 hrs by LC-MS/MS analysis; type: ADME, organism-based; settings: in vivo
[11] = tested on: Mus musculus; assay: Anti-obesity activity in high-fat and high-cholesterol diet induced C57BL/6J mouse assessed as reduction in triglyceride level at 20 mg/kg, ip administered every day for 6 weeks; type: functional, organism-based
[12] = AUC (0 to t) in Sprague-Dawley rat at 20 mg/kg, po administered for 24 hrs by LC-MS/MS analysis; type: ADME, organism-based; settings: in vivo
[13] = tested on: Mus musculus; assay: Anti-obesity activity in high-fat and high-cholesterol diet induced C57BL/6J mouse model assessed as reduction in body weight at 20 mg/kg, ip administered every day for 6 weeks and measured daily relative to control; type: functional; design: scale not given: the % may be the effect or the level left
[14] = tested on: 3T3-L1; assay: Anti-adipogenic activity against mouse 3T3-L1 cells assessed as decrease in Scd1 mRNA expression at 0.2 to 0.8 uM incubated for 3 days by RT-PCR analysis; type: functional, cell-based; settings: dose 0.2-0.8 µM, time 3.0 day
[15] = tested on: Mus musculus; assay: Anti-obesity activity in high-fat and high-cholesterol diet induced C57BL/6J mouse assessed as attenuation of hepatocyte ballooning at 20 mg/kg, ip administered every day for 6 weeks by […] staining based microscopic analysis; type: functional, organism-based
[16] = tested on: 3T3-L1; assay: Anti-adipogenic activity against mouse 3T3-L1 cells assessed as decrease in Elovl6 mRNA expression at 0.2 to 0.8 uM incubated for 3 days by RT-PCR analysis; type: functional, cell-based; settings: dose 0.2-0.8 µM, time 3.0 day

CC(=O)c1c(-c2nccc(NCCN3CCCC3)n2)[nH]c2ccccc12
Activity [1]: Active | AUC(0-t) at 24 h [2]: 219 ng·h/mL | Activity [3]: inactive | Vd/F [4]: 65.2 L/kg | IC50 at 24 h [5]: 27 µM | Activity [6]: Active | MRT last at 24 h [7]: 1.6 h | Activity [8]: Active | Activity [9]: Active | Vz/F [10]: 24.4 L/kg | Activity [11]: Active | AUC(0-t) at 24 h [12]: 1380 ng·h/mL | Activity [13]: 17.4% | Activity [14]: Active | Activity [15]: Active | Activity [16]: Active
